From article PMC10455904, “New Phocoenamicin and Maklamicin Analogues from Cultures of Three Marine-Derived Micromonospora Strains” (Marine Drugs, 2023) come the findings set out here.

The test system of data set [1] is Mycobacterium tuberculosis H37Ra (ATCC25177). Nature of the data set: Antibacterial MIC assay against M. tuberculosis H37Ra. The format is cell-based. The following applies: lowest concentration inhibiting ≥90% of growth.
The next data set can be described thus: in vitro. The following applies: human.
Data set [2] deals with methicillin-resistant Staphylococcus aureus (MRSA) MB5393. Put plainly: Antibacterial MIC assay against MRSA MB5393. The format is cell-based.
The subject of data set [3] is Enterococcus faecalis VANS 144492. Nature of the data set: Antibacterial MIC assay against E. faecalis. The format is cell-based.
In data set [4] the test system is Enterococcus faecium VANS 144754. Put plainly: Antibacterial MIC assay against E. faecium. The format is cell-based.
Data set [5] has as its system Neisseria gonorrhoeae ATCC49226. Nature of the data set: Antibacterial MIC assay against N. gonorrhoeae. The format is cell-based.
In data set [6] the test system is human liver adenocarcinoma cell line (Hep G2). Nature of the data set: MTT cytotoxicity assay, Hep G2. The following applies: for cytotoxicity (in words): Hep G2, in vitro. In general terms: Tetrazolium assays rely on reduction of a dye to a coloured formazan, in cell work by metabolically active cells.
Data set [7] can be described thus: MTT cytotoxicity assay, Hep G2. The following applies: human.
The subject of data set [8] is zebrafish eleuthero embryos. Put plainly: Zebrafish eleuthero embryos toxicity assay (immersion). The format is in vivo. The following applies: for developmental abnormalities: 25 μM, 48 h exposure, 5 dpf, representative larvae; for toxicity (lethality and sub-lethal toxicity): 3 dpf larvae, 48 h immersion, 1.6–25 μM, read at 5 dpf. How it is done: The compounds were dissolved in dimethyl sulfoxide (DMSO) and then diluted in the fish medium (Danieau) in which the 3 dpf zebrafish larvae were swimming for 48 h. The concentrations tested were 1.6, 3.13, 6.25, 12.5 and 25 μM for each of the three compounds. Vehicle-treated Control eleuthero embryos (VHC) were also treated with the same concentration of DMSO (0.5%) in fish medium to compare the possible effects of the compounds.
After the 48 h exposure, corresponding to 5 dpf larvae, the possible mortality, touch-stimulation response and developmental abnormalities were examined using a dissecting microscope coupled with a digital color camera and pictures were captured. Then, the score for the sub-lethal toxicity and lethality was determined for each fish and condition and the mean score was calculated. The assays were independently replicated three times, using 10 embryos for each condition and compound in each assay, and thus the total number of zebrafish embryos used was 480.
Each of the three compounds (3, 4 and 7) was dissolved in 100% dimethyl sulfoxide (DMSO, spectroscopy grade) and diluted in Danieau’s medium to a final concentration of 25 μΜ (0.5% DMSO), followed by ½ serial dilutions to provide five testing concentrations (1.6, 3.13, 6.25, 12.5 and 25 μM).
Next, 3 dpf zebrafish eleuthero embryos randomly selected were immersed in a 24-well plate containing the three compounds in the different testing concentrations (n = 10 larvae per well). At the same time, 10 Vehicle-treated Control eleuthero embryos (VHC) were also treated with 0.5% DMSO, in accordance with the final solvent concentration of testing compounds to compare the possible effects of the compounds. The eleuthero embryos were incubated under a 14/10 h light/dark cycle at 27–28 °C.
After the 48 h exposure, at 5 dpf, the lethality (cardiac rhythm and degraded body were used as clinical criteria) and touch-stimulation response were assessed using non-anesthetized eleuthero embryos, while the possible morphological defects were evaluated after anesthetizing the eleuthero embryos in 0.5 mM tricaine. All observations were performed using an M80 stereo microscope (Leica Microsystems, Danaher Co., Wetzlar, Germany) and pictures were captured with a Leica DFC310 FX digital color camera (Leica Microsystems, Danaher Co., Germany) and stored.
Mean score of lethality and sub-lethal toxicity per condition was calculated as follows: To each adverse effect observed (impaired motility, bad development, body curvature and swim bladder defects) a score of 1 was given (maximum 4 per larva), and a score of 6 to each dead embryo. The mean score was then calculated for all eleuthero embryos (pooled results) examined per condition, as performed before.
The results were obtained from three independent experiments, using ten larvae for each test concentration and compound. Statistical analysis was performed by using GraphPad Prism version 9.0 (GraphPad Software Inc., San Diego, CA, USA) and one-way analysis of variance (ANOVA) followed by Tukey’s multiple comparison test. The criterion for statistical significance was p < 0.05.

In data set [9] the test system is human liver adenocarcinoma cell line (Hep G2).
[10] abbreviates: Mycobacterium tuberculosis, read-out: MIC.
[11] abbreviates: Enterococcus faecalis, VANS144492.
Where [12] appears, read: Enterococcus faecium, VANS144754.
[13] abbreviates: Neisseria gonorrhoeae, ATCC49226.
The mark [14] stands for this setting: Enterococcus faecalis, VANS144492, E. faecalis VANS 144492, lowest concentration inhibiting ≥90% of growth, read-out: MIC.
Where [15] appears, read: Enterococcus faecium, VANS144754, E. faecium VANS 144754, lowest concentration inhibiting ≥90% of growth, read-out: MIC.
The mark [16] stands for this setting: Neisseria gonorrhoeae, N. gonorrhoeae ATCC49226, lowest concentration inhibiting ≥90% of growth, read-out: MIC.
Setting [17] is: Staphylococcus aureus, MRSA MB5393, lowest concentration inhibiting ≥90% of growth after overnight incubation, read-out: MIC.

≈ marks a conversion by molar mass, not a printed value. Entries after “also recorded” stand apart in the source; their conditions may differ. Like-named read-outs stand apart in the source and are kept apart here. A value given as a limit tells only on which side of the number the result lay.

As to `CC(=O)C(C)(O)C(O)CC1CC23OC(=O)C(=C2O)OC(=O)C2(C)C(C=CC4C(OC5OC(C)C(O)C(OC6OC(C)C(OC(=O)c7c(O)ccc(Cl)c7C)C(O)C6O)C5O)C(C)CC(C)C42)C(C)C=CCC3(C)C=C1CO` (stereo not shown) [Compound 1, Phocoenamicin D], the MIC was 58 µM (≈ 64 µg/mL) in [1] (setting [10]); 58 µM (≈ 64 µg/mL) in data set [2] (Staphylococcus aureus, MRSA); > 58 µM in data set [3] (setting [11]); ≥ 116 µM in data set [4] (setting [12]); > 116 µM in data set [5] (setting [13]). For the same compound, the IC50 in the data set “in vitro” was > 58.8 µM.

Take `Cc1c(Cl)ccc(O)c1C(=O)O[C@H]1[C@H](O)[C@@H](O)[C@@H](O[C@@H]2[C@@H](O)[C@H](O[C@@H]3[C@H]4C=C[C@H]5[C@H](C)/C=C/C[C@]6(C)C=C(CO)[C@H](C[C@@H](C)O)C[C@]67OC(=O)C(=C7O)C(=O)[C@@]5(C)[C@@H]4[C@@H](C)C[C@H]3C)O[C@H](C)[C@H]2O)O[C@@H]1C` [Compound 2, Phocoenamicin E]: the MIC is 31.5 to 63 µM (≈ 32 to 64 µg/mL) in [1] (setting [10]); 31.5 to 63 µM (≈ 32 to 64 µg/mL) in data set [2] (Staphylococcus aureus, MRSA); > 63 µM in data set [3] (setting [14]); > 63 µM in [4] (setting [15]); > 126 µM in data set [5] (setting [16]). Also, the “cytotoxicity (in words)” value in [6] is recorded as “moderate activity”. Besides, the half-inhibitory concentration (IC50) in [7] turned out to be 21 µM.

In the case of `CC(=O)[C@](C)(O)[C@@H](O)C[C@@H]1C[C@@]23OC(=O)C(=C2O)C(=O)[C@@]2(C)[C@H]4[C@H](C=C[C@H]2[C@H](C)/C=C/C[C@]3(C)C=C1C)[C@@H](O[C@@H]1O[C@H](C)[C@@H](O)[C@H](O[C@H]2O[C@H](C)[C@@H](OC(=O)c3c(O)ccc(Cl)c3C)[C@H](O)[C@H]2O)[C@H]1O)[C@H](C)C[C@@H]4C` [Compound 3, phocoenamicin], the MIC in data set [1] (setting [10]) was 7.5 µM (≈ 8.04 µg/mL); in [2] (setting [17]), 3.7 µM (≈ 3.97 µg/mL); in data set [3] (setting [14]) it was 7.5 µM (≈ 8.04 µg/mL); in data set [4] (setting [15]) it was 3.7 to 7.5 µM (≈ 3.97 to 8.04 µg/mL); in data set [5] (setting [16]), > 119 µM. For the same compound, the developmental abnormalities result in data set [8] is given as “no developmental abnormalities”. Further, the “toxicity (lethality and sub-lethal toxicity)” value in data set [8] was “no toxicity; also recorded: not to be toxic”. The IC50 in [7] is > 58.8 µM.

Consider `CC(=O)[C@](C)(O)[C@@H](O)C[C@@H]1C[C@@]23OC(=O)C(=C2O)C(=O)[C@@]2(C)[C@H]4[C@H](C=C[C@H]2[C@H](C)/C=C/C[C@]3(C)C=C1CO)[C@@H](O[C@@H]1O[C@H](C)[C@@H](O)[C@H](O[C@H]2O[C@H](C)[C@@H](OC(=O)c3c(O)ccc(Cl)c3C)[C@H](O)[C@H]2O)[C@H]1O)[C@H](C)C[C@@H]4C` [Compound 4, phocoenamicin B], for which the MIC in data set [1] (setting [10]) was 14.7 µM (≈ 16 µg/mL); in data set [2] (Staphylococcus aureus, MRSA) it was 7.4 µM (≈ 8.05 µg/mL); in [3] (setting [11]) it was > 58.8 µM; in data set [4] (setting [12]) it was ≥ 58.8 µM; in data set [5] (setting [13]), > 118 µM. Also, the developmental abnormalities result in data set [8] is listed as “no developmental abnormalities”. Further, in data set [8], the “toxicity (lethality and sub-lethal toxicity)” value is “no toxicity; also recorded: not to be toxic”. Also, in [6], the “cytotoxicity (in words)” value is “moderate activity”. Besides, it took 17.6 µM to reach half-maximal inhibition in “in vitro” (IC50).

As for `CC(=O)[C@](C)(O)[C@@H](O)C[C@@H]1C[C@@]23OC(=O)C(=C2O)OC(=O)[C@@]2(C)[C@H]4[C@H](C=C[C@H]2[C@H](C)/C=C/C[C@]3(C)C=C1C)[C@@H](O[C@@H]1O[C@H](C)[C@@H](O)[C@H](O[C@H]2O[C@H](C)[C@@H](OC(=O)c3c(O)ccc(Cl)c3C)[C@H](O)[C@H]2O)[C@H]1O)[C@H](C)C[C@@H]4C` [Compound 5, phocoenamicin C], the MIC was 29.4 to 58.8 µM (≈ 32 to 64 µg/mL) in [1] (setting [10]); 29.4 µM (≈ 32 µg/mL) in data set [2] (setting [17]); > 58.8 µM in [3] (setting [14]); > 58.8 µM in data set [4] (setting [15]); > 58.8 µM in data set [5] (setting [16]). Also, the IC50 in [7] is > 58.8 µM.

With `CC1=CC2(C)CC=CC(C)C3C=CC4CC(C)CCC4C3(C)C(=O)C3=C(O)C2(CC1CC(C)O)OC3=O` (stereo not shown) [Compound 6, Maklamicin B], the MIC in data set [1] (setting [10]) was 2 µM (≈ 1.02 µg/mL); in [2] (setting [17]) it was 2 µM (≈ 1.02 µg/mL); in data set [3] (setting [14]) it was 62.9 µM (≈ 32 µg/mL); in data set [4] (setting [15]), 1 µM (≈ 0.509 µg/mL); in data set [5] (setting [16]) it was > 252 µM. For the same compound, in the data set “in vitro”, the IC50 is > 58.8 µM.

Consider `C[C@H]1CC[C@@H]2[C@H](C=C[C@H]3[C@H](C)/C=C/C[C@]4(C)C=C(CO)[C@H](C[C@@H](C)O)C[C@]45OC(=O)C(=C5O)C(=O)[C@@]23C)C1` [Compound 7, maklamicin], for which the MIC was 61 µM (≈ 32 µg/mL) in data set [1] (setting [10]); <0.5 µM in data set [2] (MRSA MB5393, lowest concentration inhibiting ≥90% of growth after overnight incubation, read-out: MIC); < 0.5 µM in data set [2] (setting [17]); 1.9 µM (≈ 0.997 µg/mL) in data set [3] (setting [14]); 1 µM (≈ 0.525 µg/mL) in data set [4] (setting [15]); > 244 µM in data set [5] (setting [16]). Also, the “toxicity (lethality and sub-lethal toxicity)” value in data set [8] is recorded as “no toxicity; also recorded: not to be toxic”. Moreover, half-maximal inhibition in “in vitro” (IC50) was put at 40.2 µM. Moreover, the “cytotoxicity (in words)” value in data set [9] is “moderate activity”.

As to `COS(C)(=O)=O` [MMS, Methyl methanesulfonate, reference compound], the “cell death (positive control)” value in [6] (Hep G2, MTT, 2 mM) came to 100%.

As to `[H]/N=C(/N)N[C@H]1[C@H](O)[C@@H](O)[C@H](O[C@@H]2O[C@@H](C)[C@](O)(C=O)[C@H]2O[C@@H]2O[C@@H](CO)[C@H](O)[C@@H](O)[C@@H]2NC)[C@@H](N/C(N)=N\[H])[C@@H]1O` [streptomycin, reference compound], the values for the MIC in data set [1] (setting [10]) and in data set [1] were 2.8 to 5.4 µM (≈ 1.63 to 3.14 µg/mL) and 2.8–5.4 (S) μM, respectively.

As to `CN[C@H](CC(C)C)C(=O)N[C@H]1C(=O)N[C@@H](CC(N)=O)C(=O)N[C@H]2C(=O)N[C@H]3C(=O)N[C@H](C(=O)N[C@H](C(=O)O)c4cc(O)cc(O)c4-c4cc3ccc4O)[C@H](O)c3ccc(c(Cl)c3)Oc3cc2cc(c3O[C@@H]2O[C@H](CO)[C@@H](O)[C@H](O)[C@H]2O[C@H]2C[C@](C)(N)[C@H](O)[C@H](C)O2)Oc2ccc(cc2Cl)[C@H]1O` [vancomycin, reference compound], the MIC in data set [2] (MRSA MB5393, lowest concentration inhibiting ≥90% of growth after overnight incubation) is 1.4 (V) μM; in [2] (setting [17]), 1.4 µM (≈ 2.03 µg/mL); in [3] (E. faecalis VANS 144492, lowest concentration inhibiting ≥90% of growth), 1.4 (V) μM; in data set [3] (setting [14]), 1.4 µM (≈ 2.03 µg/mL); in [4] (E. faecium VANS 144754, lowest concentration inhibiting ≥90% of growth), 1.4 (V) μM; in [4] (setting [15]), 1.4 µM (≈ 2.03 µg/mL).

As for penicillin [reference compound], the MIC in data set [5] (N. gonorrhoeae ATCC49226, lowest concentration inhibiting ≥90% of growth) is 5.6 (P) μM.

One may read the IC50 as the concentration that inhibits the measured activity by half. A lower IC50 goes with higher potency.
